# How the values were obtained:
# [1] = test system: GHRH hormone secretion; conditions: in vivo; cited from earlier work
# [2] = test system: TNF-alpha, Interleukin-1 beta and Interleukin-6; conditions: cited from earlier work
# [3] = test system: obstructive sleep apnea; conditions: octreotide given as therapy for the endocrine disorder; cited from earlier work
# [4] = test system: GERD symptoms; experiment: Clinical observation of GERD symptoms in a terminal cancer patient given octreotide; format: in vivo, human
# Method: Development of the present invention was stimulated by an event in Applicant's clinical practice of oncology. Octretotide was added to the treatment program of a patient with terminal cancer because the patient's cancer concentrated radiolabelled octreotide on a nuclear medicine scan. Treatment was initiated with subcutaneous octreotide at a dose of 150 microgram twice daily, then three times daily, and then finally the patient was shifted to a longer-acting depot formulation of octreotide (Sandostatin LAR) that was given intramuscularly on a monthly basis.
smiles,measurement,setting,value
"C[C@@H](O)[C@@H]1NC(=O)[C@H](CCCCN)NC(=O)[C@@H](Cc2c[nH]c3ccccc23)NC(=O)[C@H](Cc2ccccc2)NC(=O)[C@@H](NC(=O)[C@H](N)Cc2ccccc2)CSSC[C@@H](C(=O)N[C@H](CO)[C@@H](C)O)NC1=O [octreotide, octreotide acetate]",GHRH hormone secretion,[1],inhibited
same,"secretion of TNF-alpha, Interleukin-1 beta and Interleukin-6",[2],inhibit
same,obstructive sleep apnea in patients with acromegaly,[3],ameliorated in many patients
same,GERD symptoms after initiation of octreotide administration,"[4]; one patient with terminal cancer, subcutaneous 150 microgram twice, then three times daily, then monthly IM Sandostatin LAR, symptoms present for many years",rapid and complete disappearance of GERD symptoms
same,duration of control of GERD symptomatology,"[4]; same patient, until death from a complication of the cancer unrelated to therapy",maintained for several months
